A word on the EC50: it is the concentration needed to bring the measured effect to its halfway point. The low end stands for an effect from little substance, the high end for a need for much substance.

Chain of RORγ-LBD (P51449 269-508): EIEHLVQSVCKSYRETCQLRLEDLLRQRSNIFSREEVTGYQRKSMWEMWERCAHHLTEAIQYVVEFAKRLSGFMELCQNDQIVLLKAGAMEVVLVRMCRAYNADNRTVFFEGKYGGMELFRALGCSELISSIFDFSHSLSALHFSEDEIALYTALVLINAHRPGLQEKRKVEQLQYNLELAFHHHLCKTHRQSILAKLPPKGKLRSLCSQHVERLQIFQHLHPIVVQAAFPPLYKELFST

This assay addresses RORγ-LBD (Homo sapiens (Human), UniProt P51449). In words: RORγ-Ligand Binding Domain (LBD) TR-FRET Assay Protocol II. The class given is biochemical. To be noted: purified RORγ-LBD, SRC1 peptide, overnight at 4° C. The method, then:
Part II—Procedures for RORγ-Ligand Binding Domain TR-FRET Assay Protocol II
HIS-tagged RORγ-LBD protein was expressed in SF9 cells using a baculovirus expression system. The RORγ-LBD protein was purified by […]. Separately, SF9 cells not expressing recombinant protein were lysed in TBS buffer (25 mM Tris, pH 8.0, 150 mM NaCl) under sonication. The lysate was added to the purified RORγ-LBD in a volume equivalent of 0.75 μL lysate (from 30,000 SF9 cells) per 75 femtomol of RORγ-LBD protein. The resulting mixture was diluted in assay buffer (50 mM Tris pH 7.0, 50 mM KCl, 1 mM EDTA, 0.1 mM DTT, 0.01% BSA) to obtain RORγ-LBD protein at a final concentration of 3 nM.
Compounds to be tested were injected to the assay plate using Acoustic Droplet Ejection technology by Echo 550 liquid handler (Labcyte, Calif.).
A stock of biotinylated-LXXLL peptide from coactivator SRC1 (Biotin-[…]) was prepared in assay buffer and added to each well (100 nM final concentration). A solution of Europium tagged anti-HIS antibody (1.25 nM final concentration) and APC-conjugated streptavidin (8 nM final concentration) were also added to each well.
The final assay mixture was incubated overnight at 4° C., and the fluorescence signal was measured on an Envision plate reader: (Excitation filter=340 nm; APC emission=665 nm; Europium emission=615 nm; dichroic mirror=D400/D630; delay time=100 μs, integration time=200 μs). The EC50 value for test compounds was calculated from the quotient of the fluorescence signal at 665 nm divided by the fluorescence signal at 615 nm
For orientation: Time-resolved FRET reads energy transfer from a long-lived donor to a nearby acceptor.
In turn, `Cc1cccc(S(=O)(=O)N2CC(N)COc3ncc(NC(=O)C(F)(F)F)cc32)c1` (stereo not shown) [Compound 71, N-[7-amino-5-(toluene-3-sulfonyl)-5,6,7,8-tetrahydro-9-oxa-1,5-diaza-benzocyclohepten-3-yl]-2,2,2-trifluoro-acetamide] returned a half-maximal effective concentration (EC50) of 0.013 µM.

As for `Cc1cccc(S(=O)(=O)N2CC(N)COc3ncc(NC(=O)c4c(Cl)cccc4Cl)cc32)c1` (stereo not shown) [Compound 74, N-[7-amino-5-(toluene-3-sulfonyl)-5,6,7,8-tetrahydro-9-oxa-1,5-diaza-benzocyclohepten-3-yl]-2,6-dichloro-benzamide], the EC50 is 0.174 µM.

Regarding `CC(=O)NC1COc2ncc(NC(=O)c3c(Cl)cccc3Cl)cc2N(S(=O)(=O)c2cccc(C)c2)C1` (stereo not shown) [Compound 75, N-[7-acetylamino-5-(toluene-3-sulfonyl)-5,6,7,8-tetrahydro-9-oxa-1,5-diaza-benzocyclohepten-3-yl]-2,6-dichloro-benzamide], the EC50 amounted to 0.291 µM.

Regarding `Cc1cccc(S(=O)(=O)N2CC(N(C)C)COc3ncc(NC(=O)c4c(Cl)cccc4Cl)cc32)c1` (stereo not shown) [Compound 76, 2,6-dichloro-N-[7-dimethylamino-5-(toluene-3-sulfonyl)-5,6,7,8-tetrahydro-9-oxa-1,5-diaza-benzocyclohepten-3-yl]-benzamide], the EC50 amounted to 0.098 µM.

For `CCNC1Cc2ncc(NC(=O)c3c(Cl)cccc3Cl)cc2N(S(=O)(=O)c2cccc(C)c2)C1` (stereo not shown) [Compound 77], the EC50 stood at 0.553 µM.

With `CCN(CC)[C@H]1Cc2ncc(NC(=O)c3c(Cl)cccc3Cl)cc2N(S(=O)(=O)c2cccc(C)c2)C1` [Compound 78], the EC50 worked out at 0.025 µM. This EC50 lies about 22-fold lower than the previous one.

`CCN(CC)[C@@H]1Cc2ncc(NC(=O)c3c(Cl)cccc3Cl)cc2N(S(=O)(=O)c2cccc(C)c2)C1` [Compound 79] gave an EC50 of 0.024 µM.

In turn, `O=C(Nc1ccc2c(c1)N(S(=O)(=O)c1cccc(Cl)c1)C[C@H](CN1CCCC1=O)O2)c1c(Cl)cccc1Cl` [Compound 80, 2,6-dichloro-N-[(S)-4-(3-chloro-benzenesulfonyl)-2-(2-oxopyrrolidin-1-ylmethyl)-3,4-dihydro-2H-benzo[1,4]oxazin-6-yl]-benzamide] yielded an EC50 of 0.026 µM. The EC50 values of the last two compounds are within 1.5-fold of each other.

The compound `O=C(Nc1cnc2c(c1)N(S(=O)(=O)c1cccc(C(F)(F)F)c1)C[C@@H](N1CCCC1=O)C2)c1c(Cl)cccc1Cl` [Compound 81] displayed an EC50 of 0.035 µM. The EC50 values of the last two compounds are within 1.5-fold of each other.

`O=C(Nc1cnc2c(c1)N(S(=O)(=O)c1cccc(C(F)(F)F)c1)C[C@H](N1CCCC1=O)C2)c1c(Cl)cccc1Cl` [Compound 82] registered an EC50 of 0.012 µM.

With `O=C(Nc1cnc2c(c1)N(S(=O)(=O)c1cccc(Cl)c1)C[C@H](CN1C(=O)COC1=O)O2)c1c(Cl)cccc1Cl` [Compound 85], a half-maximal response (EC50) required 0.02 µM.

For `CN1CC(=O)N(C[C@H]2CN(S(=O)(=O)c3cccc(Cl)c3)c3cc(NC(=O)c4c(Cl)cccc4Cl)cnc3O2)C1=O` [Compound 86, (S)-2,6-dichloro-N-(1-((3-chlorophenyl)sulfonyl)-3-((3-methyl-2,5-dioxoimidazolidin-1-yl)methyl)-2,3-dihydro-1H-pyrido[2,3-b][1,4]oxazin-7-yl)benzamide], the concentration giving a half-maximal response (EC50) is 0.01 µM. Against the preceding compound, the EC50 is about 2-fold lower.

In turn, `CN1CCN(C[C@H]2CN(S(=O)(=O)c3cccc(Cl)c3)c3cc(NC(=O)c4c(Cl)cccc4Cl)cnc3O2)CC1=O` [Compound 87, (S)-2,6-dichloro-N-(1-((3-chlorophenyl)sulfonyl)-3-((4-methyl-3-oxopiperazin-1-yl)methyl)-2,3-dihydro-1H-pyrido[2,3-b][1,4]oxazin-7-yl)benzamide] returned an EC50 of 0.052 µM.

Compound `CN(C)C[C@H]1CN(S(=O)(=O)c2cccc(Cl)c2)c2cc(NC(=O)c3c(Cl)cccc3Cl)cnc2O1` [Compound 88] showed an EC50 of 0.042 µM.

As to `O=C(Nc1cnc2c(c1)N(S(=O)(=O)c1cccc(Cl)c1)C[C@H](CN1CC[C@@H](O)C1)O2)c1c(Cl)cccc1Cl` [Compound 89], a half-maximal effect (EC50) was put at 0.032 µM.

`O=C(Nc1cnc2c(c1)N(S(=O)(=O)c1cccc(Cl)c1)C[C@H](CN1CCOCC1)O2)c1c(Cl)cccc1Cl` [Compound 90] yielded an EC50 of 0.03 µM.

Regarding `CN1CCN(C[C@H]2CN(S(=O)(=O)c3cccc(Cl)c3)c3cc(NC(=O)c4c(Cl)cccc4Cl)cnc3O2)CC1` [Compound 91], the EC50 came to 1.33 µM.

`Cc1nn(C(F)F)cc1S(=O)(=O)N1C[C@H](CO)Cc2ncc(NC(=O)[C@@H](C)C(C)(C)C)cc21` [Compound 92, (S)-N-((R)-5-((1-(difluoromethyl)-3-methyl-1H-pyrazol-4-yl)sulfonyl)-7-(hydroxymethyl)-5,6,7,8-tetrahydro-1,5-naphthyridin-3-yl)-2,3,3-trimethylbutanamide]: the response was half-maximal at 10 µM (EC50). This EC50 is about 7.5-fold higher than that of the compound before.

On to `Cc1cccc(S(=O)(=O)N2CC(CO)Cc3ncc(NC(=O)c4c(Cl)cccc4Cl)cc32)c1` (stereo not shown) [Compound 94, 2,6-dichloro-N-(7-(hydroxymethyl)-5-(m-tolylsulfonyl)-5,6,7,8-tetrahydro-1,5-naphthyridin-3-yl)benzamide], for which it took 0.02 µM to reach a half-maximal effect (EC50).

Consider `Cc1nn(C(F)F)cc1S(=O)(=O)N1C[C@H](CN2CC[C@@H](O)C2)Cc2ncc(NC(=O)[C@@H](C)C(C)(C)C)cc21` [Compound 95, (S)-N-((S)-5-((1-(difluoromethyl)-3-methyl-1H-pyrazol-4-yl)sulfonyl)-7-(((R)-3-hydroxypyrrolidin-1-yl)methyl)-5,6,7,8-tetrahydro-1,5-naphthyridin-3-yl)-2,3,3-trimethylbutanamide], for which the EC50 is 4.1 µM.

Consider `Cc1nn(C(F)F)cc1S(=O)(=O)N1C[C@@H](CN2CC[C@@H](O)C2)Cc2ncc(NC(=O)[C@@H](C)C(C)(C)C)cc21` [Compound 96, (S)-N-((R)-5-((1-(difluoromethyl)-3-methyl-1H-pyrazol-4-yl)sulfonyl)-7-(((R)-3-hydroxypyrrolidin-1-yl)methyl)-5,6,7,8-tetrahydro-1,5-naphthyridin-3-yl)-2,3,3-trimethylbutanamide], for which a half-maximal response (EC50) required 0.168 µM.

As for `O=C(Nc1cnc2c(c1)N(S(=O)(=O)c1cccc(C(F)(F)F)c1)C[C@@H](N1CCOC1=O)C2)c1c(Cl)cccc1Cl` [Compound 97, (S)-2,6-dichloro-N-(7-(2-oxooxazolidin-3-yl)-5-((3-(trifluoromethyl)phenyl)sulfonyl)-5,6,7,8-tetrahydro-1,5-naphthyridin-3-yl)benzamide], the EC50 came out at 0.042 µM.

The record behind these values is US9657033B2, “Tetrahydronaphthyridine and related bicyclic compounds for inhibition of RORγ activity and the treatment of disease” (Merck Sharp & Dohme Corp., priority 2012, dated 2017).
